Drawing on patent US20130165368A1, “ANTIMICROBIAL COMPOUNDS” (priority 2010, published 2013), this text covers MIC for three molecules.

Format in all cases: cell-based
The subject of test [1] is Staphylococcus aureus. Nature of the test: MIC agar dilution, micro-organism 13 (6571). Conditions: Staphylococcus aureus 6571. In outline:
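Twofold dilutions of compound emulsions in water were set in Isosensitest agar with Brazier's CCEY medium, egg yolk and lysed horse blood. Spots of 1 µL from 0.5 McFarland suspensions diluted 1/15 were incubated aerobically at 37 °C and read at 22 and 48 h. MIC (mmol/L) was the lowest concentration giving <10 colonies.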

Test [2] deals with Enterococcus faecium (VRE) 12185 Clin waste. Nature of the test: MIC agar dilution, VRE strain 24. How it is done:
(§1) Molar equivalent concentrations were used to allow comparison between compounds of differing molecular mass. Due to weighing difficulties, any compound in solid form was melted in a water bath prior to dilution. To make ten-times strength concentrations, which takes into account agar dilution, 0.0352 mmol of each compound was weighed into plastic universal bottles and 4 mL of sterile distilled water (SDW) was added. To produce a homogenous emulsion the universals were vortexed; once achieved the emulsions were serial diluted by adding 2 mL to 2 mL of SDW.
(§2) For every 100 mL of Isosensitest agar (IST) (CM0471; Oxoid, Basingstoke, England), 3.1 g of the IST powder was added to 100 mL SDW (as per manufacturer's instructions) and sterilised for 15 minutes at 121° C. Once sterilised, the molten agar was cooled to 50° C. in a water-bath. Subsequently 4.8 g of CCEY powder (BC2160; Bioconnections, Wetherby, England), also known as Brazier's medium, was added to 100 mL SDW for every 100 mL of agar needed. This was then sterilised for 15 minutes at 121° C. Once sterilised the molten agar was cooled to 50° C. in a water-bath and 4 mL of egg-yolk emulsion (S2073; TCS Biosciences Ltd, Buckingham, United Kingdom) and 1 mL of lysed defibrinated horse blood (HB035; TCS Biosciences Ltd, Buckingham, United Kingdom) were also added for every 100 mL needed. Horse blood lysis is achieved by dilution to half concentration with SDW; when fully lysed the mixture will turn dark red in colour.
(§3) 18 mL agar was added to each universal and then poured into sterile Petri dishes. This step creates a 1/10 dilution resulting in agar plates of the required strength. Control plates for each set of strains were created by adding 18 mL of agar to 2 mL of SDW.
(§4) Suspensions of each bacterial species were prepared with a density equal to that of a 0.5 McFarland standard using a densitometer. All suspensions were made using sterile distilled water and fresh 18-20 hour cultures. As a 0.5 McFarland standard contains 1.5×10^8 CFU/mL and the multipoint inoculators applies 1 μL spots of liquid, each bacterial suspension was diluted 1/15 (20 μL suspension to 280 μL sterile distilled water).
(§5) Bacterial suspensions were prepared from fresh 18-24 hour cultures as previously described. 1 μL of each strain was inoculated onto all 100 agar plates containing a different chemical concentration and the 2 control plates. This was done using a multipoint inoculator which inoculates 20 strains per plate. All plates were incubated for 22 hours at 37° C. in aerobic conditions.
(§6) Each plate was examined for bacterial growth after 22 and 48 hours, with each being incubated in between examinations. A positive result was recorded as growth of ≧10 colonies. A negative result was recorded as growth of <10 colonies as this is equivalent to 99.9% inhibition. The lowest concentration of chemical that inhibited growth was recorded as the MIC. The results are recorded in Table IV below, where the numbers are quoted in mmol/L.
(§7) Given the positive performance of the ethoxylates of lauryl alcohol in reducing the MIC for a number of the micro-organisms tested, further MIC testing of Laureth-1 [C12E1] through to Laureth-8 [C12E8] was conducted on each of the following: • 10 strains of vancomycin-resistant enterococci (VRE)—listed in Table V below; and • 20 strains of methicillin-resistant Staphylococcus aureus (MRSA)—listed in Table VI.
(§8) The alkanol, alkanol derivatives, agar plates, and inocula were all prepared in the same way as described above.
(§9) The plates were examined in the same manner as described above and the results are recorded in Table VII below, where the numbers are quoted in mmol/L.
In general terms: Agar dilution tests growth on a series of plates holding different concentrations.

The test system of test [3] is MRSA EMRSA 16 00036/95. Kind of test: MIC agar dilution, MRSA strain 46. The conditions noted are these: Staphylococcus aureus. The procedure: as §1, §2, §3, §4, §5, §6, §7, §8, §9
Test [4] has as its system MRSA EMRSA 15 1729/98. Nature of the test: MIC agar dilution, MRSA strain 42. Conditions: Staphylococcus aureus. The procedure: as §1, §2, §3, §4, §5, §6, §7, §8, §9
The test system of test [5] is Enterococcus faecalis (VRE) MB 726. Kind of test: MIC agar dilution, VRE strain 28. The procedure: as §1, §2, §3, §4, §5, §6, §7, §8, §9
Test [6] deals with Enterococcus faecalis (VRE) MB 1969. Kind of test: MIC agar dilution, VRE strain 27. The procedure: as §1, §2, §3, §4, §5, §6, §7, §8, §9
In test [7] the test system is MRSA EMRSA 16 00998/95. Nature of the test: MIC agar dilution, MRSA strain 47. Conditions: Staphylococcus aureus. The procedure: as §1, §2, §3, §4, §5, §6, §7, §8, §9
Test [8] relates to MRSA EMRSA 16 18200/95. Nature of the test: MIC agar dilution, MRSA strain 48. Conditions: Staphylococcus aureus. How it is done:
as §1, §2, §3, §4, §5, §6, §7, §8, §9

For test [9], the system named is Enterococcus faecium (VRE) MB 305. Nature of the test: MIC agar dilution, VRE strain 25. How it is done: as §1, §2, §3, §4, §5, §6, §7, §8, §9
The subject of test [10] is MRSA EMRSA 15 19972/98. Nature of the test: MIC agar dilution, MRSA strain 39. The conditions noted are these: Staphylococcus aureus. How it is done:
as §1, §2, §3, §4, §5, §6, §7, §8, §9

For test [11], the system named is MRSA EMRSA 16 07924/95. Kind of test: MIC agar dilution, MRSA strain 49. Conditions: Staphylococcus aureus. The procedure: as §1, §2, §3, §4, §5, §6, §7, §8, §9
The test system of test [12] is Enterococcus faecium (VRE) MB 3137. Nature of the test: MIC agar dilution, VRE strain 26. How it is done: as §1, §2, §3, §4, §5, §6, §7, §8, §9
In test [13] the test system is MRSA BEL 97597. Kind of test: MIC agar dilution, MRSA strain 33. The conditions noted are these: Staphylococcus aureus. The procedure:
as §1, §2, §3, §4, §5, §6, §7, §8, §9

[14] abbreviates: Staphylococcus aureus, 22 h, 22 hrs, read-out: MIC.
Setting [15] is: Staphylococcus aureus, 48 h, 48 hrs, read-out: MIC.

For orientation: MIC means the lowest concentration found to suppress growth.

The structures appear in SMILES notation. In brackets after ≈: the same amount, converted by molar mass. Read-outs that look alike come from different tables or passages of the source.

Turning to `CCCCCCCCCCCCCCCCO` [C0, 1-Hexadecanol, reference compound], the MIC in test [1] (setting [14]) and in test [1] (setting [15]) was > 880 µM in each case.

In the case of `CCCCCCCCCCCCCOCCOCCOCCOCCOCCOCCO` [C13E6, polyoxyethylene (6) tridecyl alcohol], the MIC in [1] (22 hrs) and in [1] (48 hrs) was 110 µM (≈ 51.1 µg/mL) each time.

Consider `CCCCCCCCCCCCOCCO` [L1, Ethylene Glycol Monododecyl Ether], for which the MIC was 880 µM (≈ 203 µg/mL) in test [2] (22 hrs); 880 µM (≈ 203 µg/mL) in test [2] (48 hrs); 220 µM (≈ 50.7 µg/mL) in [3] (22 hrs); 220 µM (≈ 50.7 µg/mL) in test [3] (48 hrs); 220 µM (≈ 50.7 µg/mL) in test [4] (22 hrs); 220 µM (≈ 50.7 µg/mL) in test [4] (48 hrs). Also, the MIC in test [5] (22 hrs) came to 440 µM (≈ 101 µg/mL); in test [5] (48 hrs), 440 µM (≈ 101 µg/mL); in [6] (22 hrs), 220 µM (≈ 50.7 µg/mL); in test [6] (48 hrs), 220 µM (≈ 50.7 µg/mL); in [7] (22 hrs) it was 220 µM (≈ 50.7 µg/mL); in test [7] (48 hrs), 220 µM (≈ 50.7 µg/mL). In addition, the minimal inhibitory concentration (MIC) is 220 µM (≈ 50.7 µg/mL) in test [8] (22 hrs); 220 µM (≈ 50.7 µg/mL) in [8] (48 hrs); 440 µM (≈ 101 µg/mL) in test [9] (22 hrs); 880 µM (≈ 203 µg/mL) in [9] (48 hrs); 220 µM (≈ 50.7 µg/mL) in test [10] (22 hrs); 220 µM (≈ 50.7 µg/mL) in test [10] (48 hrs). The MIC is 220 µM (≈ 50.7 µg/mL) in [11] (22 hrs); 220 µM (≈ 50.7 µg/mL) in [11] (48 hrs); 440 µM (≈ 101 µg/mL) in [12] (22 hrs); 440 µM (≈ 101 µg/mL) in test [12] (48 hrs); 220 µM (≈ 50.7 µg/mL) in test [13] (22 hrs); 220 µM (≈ 50.7 µg/mL) in test [13] (48 hrs). The minimal inhibitory concentration (MIC) in test [1] (setting [14]) and in test [1] (setting [15]) was 220 µM (≈ 50.7 µg/mL) each time.
